Test results published in patent US20210238138A1, “Method for improving nucleation of crystals from solution” (Université Libre de Bruxelles, priority 2018, published 2021).
≈ marks a conversion by molar mass, not a printed value.

Tests used:
[1] = Cooling crystallisation of Brivaracetam/IPAc in capillary tubing; format: physicochemical; conditions: 7 m tubing; for Appearance of crystals: 30 mL/min, 1 restriction, bath 20° C., initial 45° C.
Experimental: For example, following tests were made on Brivaracetam/IPAc (IsoPropylAcetate) at different concentrations. Induction time (appearance of crystals) is shown in table 1 for different increasing concentrations at a crystallization temperature of 20° C. after flowing through the tube at 30 mL/min in a 7 m long tubing.
(so same overall supersaturation). The variation in crystal size is shown without and with a 5 cm long 500 μm restriction. “Needles and rods” indicate appearance of concurring crystallizations of the two possible crystal types of Brivaracetam. Therefore the method also influences selectivity for one single crystal form. In the case of Brivaracetam, rods are preferred.
The advantage of using restriction(s) has already been indicated in previous tables. A series of tests was also performed using identical conditions and only changing the number of identical restrictions. In table 3, the tests were performed with restrictions of 1 mm in length and having an inner diameter of 500 μm. Crystal length decreases drastically when placing more restrictions in series in the tubing line.
Also different geometries of restriction were tested on Brivaracetam/IPAc mixtures: different lengths and different inner diameters.
The crystallization temperature is controlled by a water bath containing about 5 L of water, temperature is monitored at all times by a thermocouple. This water is cooled by a 1 m long cupper serpentine plunged into the bath with cooling liquid flowing from and to a cryothermostat, the water bath itself is agitated with a magnetic bar stirrer. The internal volume of a 7 m long tubing of […] is about 22 mL. As this volume is 220 times smaller than the volume of the present water it is assumed that the water temperature remains within a 0.5° C. or smaller margin of the set temperature value.

[2] = Antisolvent (hexane) crystallisation of Brivaracetam/IPAc in capillary tubing; format: physicochemical; conditions: for Crystals Mean maximum length: inner diameter 500 μm, flows 20 and 20 mL · min^−1
Experimental: The length of the capillary tube has also been varied. In the following tests, antisolvent hexane at 4° C. was added to a solution of Brivaracetam/IPAc. It became clear that for these cases different lengths of tubing are to be investigated, as too long tube results into blockage of the tubes due to too high solid content in suspension in the solution, as reported in table 6. In all cases, the preferred rods form was observed.

[3] = Solubility of Brivaracetam in IPAc; conditions: IPAc (isopropyl acetate), organic solvent or mixture
[4] = test 2: 600 mg/mL in IPAc, Tc 0° C., σ 11, Q 43 mL/min, no restriction
[5] = test 3: 600 mg/mL in IPAc, Tc 0° C., σ 11, Q 32 mL/min, no restriction
[6] = test 4: 600 mg/mL in IPAc, Tc 0° C., σ 11, Q 21 mL/min, no restriction
[7] = test 6: 600 mg/mL in IPAc, Tc 0° C., σ 11, Q 43 mL/min, restriction 5 cm long, 500 μm
[8] = test 7: 600 mg/mL in IPAc, Tc 0° C., σ 11, Q 32 mL/min, restriction 5 cm long, 500 μm
[9] = test 8: 600 mg/mL in IPAc, Tc 0° C., σ 11, Q 21 mL/min, restriction 5 cm long, 500 μm
[10] = test 9: 400 mg/mL in IPAc, Tc 10° C., σ 4.7, Q 30 mL/min, 0 restrictions
[11] = test 9 as listed in Table 4: 400 mg/mL in IPAc, Tc 10° C., σ 4.7, Q 30 mL/min, restriction none
[12] = test 10: 400 mg/mL in IPAc, Tc 10° C., σ 4.7, Q 30 mL/min, 1 restriction 1 mm long, 500 μm
[13] = test 11: 400 mg/mL in IPAc, Tc 10° C., σ 4.7, Q 30 mL/min, 1 restriction 1 mm long, 500 μm
[14] = test 12: 400 mg/mL in IPAc, Tc 10° C., σ 4.7, Q 30 mL/min, 2 restrictions 1 mm long, 500 μm
[15] = test 13: 400 mg/mL in IPAc, Tc 10° C., σ 4.7, Q 30 mL/min, 2 restrictions 1 mm long, 500 μm
[16] = test 14: 400 mg/mL in IPAc, Tc 10° C., σ 4.7, Q 30 mL/min, 3 restrictions 1 mm long, 500 μm
[17] = test 15: 400 mg/mL in IPAc, Tc 10° C., σ 4.7, Q 30 mL/min, 3 restrictions 1 mm long, 500 μm
[18] = test 16: 400 mg/mL in IPAc, Tc 10° C., σ 4.7, Q 30 mL/min, 4 restrictions 1 mm long, 500 μm
[19] = test 17: 400 mg/mL in IPAc, Tc 10° C., σ 4.7, Q 30 mL/min, one restriction length 5 cm, diameter 500 μm
[20] = test 18: 400 mg/mL in IPAc, Tc 10° C., σ 4.7, Q 30 mL/min, one restriction length 5 cm, diameter 750 μm
[21] = test 19: 400 mg/mL in IPAc, Tc 10° C., σ 4.7, Q 30 mL/min, one restriction length 20 cm, diameter 500 μm
[22] = test 20: 400 mg/mL in IPAc, Tc 10° C., σ 4.7, Q 30 mL/min, one restriction length 50 cm, diameter 500 μm
[23] = test 21: 400 mg/mL in IPAc, Tc 10° C., σ 4.7, Q 30 mL/min, one restriction length 100 cm, diameter 500 μm

What does the source list for `CCC[C@@H]1CC(=O)N([C@@H](CC)C(N)=O)C1` [Brivaracetam]?
Appearance of crystals ([1]; 150 mg/mL in IPAc, supersaturation 0.09): None; Appearance of crystals ([1]; 200 mg/mL in IPAc, supersaturation 0.47): None; Appearance of crystals ([1]; 250 mg/mL in IPAc, supersaturation 0.83): 20 h; Appearance of crystals ([1]; 300 mg/mL in IPAc, supersaturation 1.21): 2 h; Appearance of crystals ([1]; 350 mg/mL in IPAc, supersaturation 1.57): 0.5 h; Appearance of crystals ([1]; 400 mg/mL in IPAc, supersaturation 1.94): Immediate; Appearance of crystals ([1]; 500 mg/mL in IPAc, supersaturation 2.68): Immediate; Appearance of crystals ([1]; 600 mg/mL in IPAc, supersaturation 3.41): Immediate, white slurry; Appearance of crystals ([1]; 800 mg/mL in IPAc, supersaturation 4.88): Immediate, white slurry; Appearance crystals ([1]; test 1: 600 mg/mL in IPAc, Tc 0° C., σ 11, Q 54 mL/min, no restriction): Needles; Appearance crystals [1, 4]: Rods; Crystal length [1, 4]: 1020 ± 196 μm; J (nucleation rate) [1, 4]: 2 100 mL^−1 · s^−1; Appearance crystals [1, 5]: Rods; Crystal length [1, 5]: 365 ± 106 μm; J (nucleation rate) [1, 5]: 43 000 mL^−1 · s^−1; Appearance crystals [1, 6]: Rods; Crystal length [1, 6]: 258 ± 76 μm; J (nucleation rate) [1, 6]: 121 000 mL^−1 · s^−1; Appearance crystals ([1]; test 5: 600 mg/mL in IPAc, Tc 0° C., σ 11, Q 54 mL/min, restriction 5 cm long, 500 μm): Needles; Appearance crystals [1, 7]: Rods; Crystal length [1, 7]: 227 ± 64 μm; J (nucleation rate) [1, 7]: 181 000 mL^−1 · s^−1; Appearance crystals [1, 8]: Rods; Crystal length [1, 8]: 121 ± 33 μm; J (nucleation rate) [1, 8]: 1 200 000 mL^−1 · s^−1; Appearance crystals [1, 9]: Rods; Crystal length [1, 9]: 175 ± 100 μm; J (nucleation rate) [1, 9]: 400 000 mL^−1 · s^−1; Appearance crystals [1, 10]: Rods; Crystal length [1, 10]: 195 μm; J (nucleation rate) [1, 10]: 66 000 mL.^−1s^−1; Appearance crystals [1, 11]: Rods; Crystal length [1, 11]: 195 μm; J (nucleation rate) [1, 11]: 131 000 mL^−1 · s^−1; Appearance crystals [1, 12]: Rods; Crystal length [1, 12]: 62 μm; J (nucleation rate) [1, 12]: 3 085 000 mL.^−1s^−1; Appearance crystals [1, 13]: Rods; Crystal length [1, 13]: 62 μm; J (nucleation rate) [1, 13]: 1 609 000 mL.^−1s^−1; Appearance crystals [1, 14]: Rods; Crystal length [1, 14]: 46 μm; J (nucleation rate) [1, 14]: 8 500 000 mL.^−1s^−1; Appearance crystals [1, 15]: Rods; Crystal length [1, 15]: 43 μm; J (nucleation rate) [1, 15]: 7 300 000 mL.^−1s^−1; Appearance crystals [1, 16]: Rods; Crystal length [1, 16]: 37 μm; J (nucleation rate) [1, 16]: 12 000 000 mL.^−1s^−1; Appearance crystals [1, 17]: Rods; Crystal length [1, 17]: 40 μm; J (nucleation rate) [1, 17]: 11 500 000 mL.^−1s^−1; Appearance crystals [1, 18]: Rods; Crystal length [1, 18]: 35 μm; J (nucleation rate) [1, 18]: 9 700 000 mL.^−1s^−1; Appearance crystals [1, 19]: Rods; Crystal length [1, 19]: 143 μm; J (nucleation rate) [1, 19]: 310 000 mL^−1 · s^−1; Appearance crystals [1, 20]: Rods; Crystal length [1, 20]: 120 μm; J (nucleation rate) [1, 20]: 500 000 mL^−1 · s^−1; Appearance crystals [1, 21]: Rods; Crystal length [1, 21]: 95 μm; J (nucleation rate) [1, 21]: 642 000 mL^−1 · s^−1; Appearance crystals [1, 22]: Rods; Crystal length [1, 22]: 207 μm; J (nucleation rate) [1, 22]: 132 000 mL^−1 · s^−1; Appearance crystals [1, 23]: Rods; Crystal length [1, 23]: 211 μm; J (nucleation rate) [1, 23]: 107 000 mL^−1 · s^−1; Crystal form observed ([2]; all antisolvent (hexane) tests of tables 5 and 6): rods; Crystals Mean maximum length ([2]; test 22: 150 mg · mL^−1 in IPAc, σ 8.4, hexane antisolvent, tubular length 18 cm): 6 ± 2 μm; Crystals Mean maximum length ([2]; test 23: 150 mg · mL^−1 in IPAc, σ 8.4, hexane antisolvent, tubular length 33 cm): 9 ± 5 μm; Crystals Mean maximum length ([2]; test 24: 150 mg · mL^−1 in IPAc, σ 8.4, hexane antisolvent, tubular length 50 cm): 10 ± 5 μm; Crystals Mean maximum length ([2]; test 25: 150 mg · mL^−1 in IPAc, σ 8.4, hexane antisolvent, tubular length 50 cm): 9 ± 4 μm; Crystals Mean maximum length ([2]; test 26: 150 mg · mL^−1 in IPAc, σ 8.4, hexane antisolvent, tubular length 100 cm): Blocked tube; Crystals Mean maximum length ([2]; test 27: 200 mg · mL^−1 in IPAc, σ 11.5, hexane antisolvent, tubular length 18 cm): 12 ± 6 μm; Crystals Mean maximum length ([2]; test 28: 200 mg · mL^−1 in IPAc, σ 11.5, hexane antisolvent, tubular length 33 cm): 7 ± 3 μm; Crystals Mean maximum length ([2]; test 29: 200 mg · mL^−1 in IPAc, σ 11.5, hexane antisolvent, tubular length 50 cm): 9 ± 5 μm; Crystals Mean maximum length ([2]; test 30: 200 mg · mL^−1 in IPAc, σ 11.5, hexane antisolvent, tubular length 50 cm): 7 ± 3 μm; Crystals Mean maximum length ([2]; test 31: 200 mg · mL^−1 in IPAc, σ 11.5, hexane antisolvent, tubular length 100 cm): Blocked tube; Crystals Mean maximum length ([2]; test 32: 300 mg · mL^−1 in IPAc, σ 17.8, hexane antisolvent, tubular length 50 cm): 8 ± 3 μm; Crystals Mean maximum length ([2]; test 33: 300 mg · mL^−1 in IPAc, σ 17.8, hexane antisolvent, tubular length 100 cm): Blocked tube; solubility ([3]; 20 °C): 136 mg/mL (≈ 641 mM); solubility ([3]; 45 °C): ~1100 mg/mL (≈ 5180 mM)
